Test results: paper PMC8844424, “Optimization, purification and characterization of laccase from Ganoderma leucocontextum along with its phylogenetic relationship” (Scientific Reports, 2022)

System: Glacc110 (purified laccase of G. leucocontextum)
Test: spectrophotometric oxidation assay at […] nm, Lineweaver-Burk plot
Format: biochemical, Ganoderma leucocontextum
Conditions: 1-10 mM guaiacol, 100 mM citrate-phosphate buffer, pH 3.0; temperature not stated for kinetics

- Km: 1660 µM
Structure (SMILES): COc1ccccc1O [guaiacol]
